Source: ChEMBL document CHEMBL3813696, “Identification of Compounds with Efficacy against Malaria Parasites from Common North American Plants” (J Nat Prod, 2016)

Assays:
[1] = tested on: Plasmodium falciparum; assay: Antimalarial activity against multidrug sensitive Plasmodium falciparum HB3 assessed as growth inhibition after 72 hrs by SYBR Green based fluorescence assay; format: functional, organism-based
[2] = tested on: Plasmodium falciparum; assay: Antimalarial activity against multidrug resistant Plasmodium falciparum NHP1337 assessed as growth inhibition after 72 hrs by SYBR Green based fluorescence assay; format: functional, organism-based
[3] = tested on: HeLa; assay: Cytotoxicity against human HeLa cells assessed as growth inhibition by sulforhodamine B assay; format: cell-based
[4] = Selectivity ratio of IC50 for human HeLa cells to IC50 for multidrug sensitive Plasmodium falciparum HB3; format: ADME, cell-based; conditions: for Ratio IC50: hela; for selectivity ratio: HeLa cells versus Plasmodium falciparum HB3, read-out: Ratio IC50
[5] = Selectivity ratio of IC50 for human HeLa cells to IC50 for multidrug resistant Plasmodium falciparum NHP1337; format: ADME, cell-based; conditions: for Ratio IC50: hela; for selectivity ratio: HeLa cells versus Plasmodium falciparum NHP1337, read-out: Ratio IC50
[6] = Resistance index, ratio of IC50 for multidrug resistant Plasmodium falciparum NHP1337 to IC50 for multidrug sensitive Plasmodium falciparum HB3; format: functional
[7] = Plasmodium falciparum, HB3, 72 h
[8] = Plasmodium falciparum, NHP1337, 72 h

Row | SMILES | IC50 [1, 7] [µM] | IC50 [2] [µM] | IC50 ([3]; hela) [µM] | Ratio IC50 [4] | Ratio IC50 [5] | IC50 [2, 8] [µM] | Ratio IC50 [6] | IC50 ([3]; Homo sapiens, HeLa) [µM] | selectivity ratio [4] | selectivity ratio [5] | IC50 [1] [µM]
1 | C=C(C)[C@@H]1CC[C@]2(CO)CC[C@]3(C)[C@H](CC[C@@H]4[C@@]5(C)CC[C@H](O)[C@@](C)(COC(=O)/C=C/c6ccc(O)c(OC)c6)[C@@H]5CC[C@]43C)[C@@H]12 (stereo in doubt) [listing 1 of 2 here] | 1 | 0.31 | 20 | 20 | 65 |  |  |  |  |  | 
2 | C=C(C)[C@@H]1CC[C@]2(CO)CC[C@]3(C)[C@H](CC[C@@H]4[C@@]5(C)CC[C@H](O)[C@@](C)(COC(=O)/C=C/c6ccc(O)cc6)[C@@H]5CC[C@]43C)[C@@H]12 | 0.9 |  |  |  |  | 0.85 | 0.9 | 28 | 31 | 33 | 
3 | C=C(C)[C@@H]1CC[C@]2(CO)CC[C@]3(C)[C@H](CC[C@@H]4[C@@]5(C)CC[C@H](O)[C@@](C)(COC(=O)/C=C/c6ccc(O)c(OC)c6)[C@@H]5CC[C@]43C)[C@@H]12 (stereo in doubt) [listing 2 of 2 here] |  |  |  |  |  |  | 0.3 |  |  |  | 
4 | C=C(C)[C@@H]1CC[C@]2(CO)CC[C@]3(C)[C@H](CC[C@@H]4[C@@]5(C)CC[C@H](O)[C@@](C)(COC(=O)/C=C/c6ccc(O)c(OC)c6)[C@@H]5CC[C@]43C)[C@@H]12 (stereo in doubt; 3) [listing 1 of 2 here] |  |  |  |  |  |  | 0.5 |  |  |  | 
5 | C=C(C)[C@@H]1CC[C@]2(CO)CC[C@]3(C)[C@H](CC[C@@H]4[C@@]5(C)CC[C@H](O)[C@@](C)(CO)[C@@H]5CC[C@]43C)[C@@H]12 | 3.4 |  |  |  |  | 5.2 | 1.5 | > 20 | > 5.9 | > 3.8 | 
6 | C=C(C)[C@@H]1CC[C@]2(CO)CC[C@]3(C)[C@H](CC[C@@H]4[C@@]5(C)CC[C@H](O)[C@@](C)(COC(=O)/C=C/c6ccc(O)c(OC)c6)[C@@H]5CC[C@]43C)[C@@H]12 (stereo in doubt; 3) [listing 2 of 2 here] |  |  |  |  |  | 0.27 |  | > 20 | > 40 | > 74 | 0.5
7 | CC(=O)O[C@@H]1[C@@H](OC(=O)/C=C/c2ccc(O)cc2)[C@H](Oc2c(-c3ccc(O)cc3)oc3cc(O)cc(O)c3c2=O)O[C@H](COC(=O)/C=C/c2ccc(O)cc2)[C@H]1OC(C)=O | 0.6 |  |  |  |  | 2.1 | 3.5 | < 3 | < 5 | < 1.4 | 
8 | C=C(C)[C@@H]1CC[C@]2(CO)CC[C@]3(C)[C@H](CC[C@@H]4[C@@]5(C)CC[C@H](O)[C@@](C)(COC(=O)/C=C\c6ccc(O)cc6)[C@@H]5CC[C@]43C)[C@@H]12 | 0.8 |  |  |  |  | 1.53 | 1.9 | 7 | 8.8 | 4.6 | 
9 | C=C(C)[C@@H]1CC[C@]2(CO)CC[C@]3(C)[C@H](CC[C@@H]4[C@@]5(C)CC[C@H](OC(=O)/C=C/c6ccc(O)c(OC)c6)[C@@](C)(CO)[C@@H]5CC[C@]43C)[C@@H]12 | 3 |  |  |  |  | 2.3 | 0.8 | > 20 | > 6.7 | > 8.7 | 
10 | CC(=O)O[C@@H]1[C@@H](OC(=O)/C=C/c2ccc(O)cc2)[C@H](Oc2c(-c3ccc(O)cc3)oc3cc(O)cc(O)c3c2=O)O[C@H](COC(=O)/C=C\c2ccc(O)cc2)[C@H]1OC(C)=O | 0.8 |  |  |  |  | 4 | 5 | < 3 | < 3.8 | < 0.8 | 
11 | C=C(C)[C@@H]1CC[C@]2(CO)CC[C@]3(C)[C@H](CC[C@@H]4[C@@]5(C)CC[C@H](OC(=O)/C=C/c6ccc(O)cc6)[C@@](C)(CO)[C@@H]5CC[C@]43C)[C@@H]12 (stereo in doubt; 6) [listing 1 of 2 here] | 1.9 | 1.4 | > 20 | > 11 | > 14 |  |  |  |  |  | 
12 | O=c1cc(-c2ccc(O)c(-c3c(O)cc(O)c4c(=O)cc(-c5ccc(O)cc5)oc34)c2)oc2cc(O)cc(O)c12 [AMENTOFLAVONE] | 25 |  |  |  |  | 19 | 0.8 | 46.4 | 1.9 | 2.4 | 
13 | C[C@@H]1O[C@@H](Oc2c(-c3ccc(O)cc3)oc3cc(O)cc(O)c3c2=O)[C@H](OC(=O)/C=C\c2ccc(O)cc2)[C@H](OC(=O)/C=C\c2ccc(O)cc2)[C@H]1O | 1.8 |  |  |  |  | 7 | 3.9 | 16 | 8.9 | 2.3 | 
14 | CC(=O)O[C@@H]1[C@@H](OC(=O)/C=C\c2ccc(O)cc2)[C@H](Oc2c(-c3ccc(O)cc3)oc3cc(O)cc(O)c3c2=O)O[C@H](COC(=O)/C=C\c2ccc(O)cc2)[C@H]1OC(C)=O | 2.1 |  |  |  |  | 3.8 | 1.8 | < 3 | < 1.4 | < 0.8 | 
15 | C[C@@H]1O[C@@H](Oc2c(-c3ccc(O)cc3)oc3cc(O)cc(O)c3c2=O)[C@H](OC(=O)/C=C/c2ccc(O)cc2)[C@H](OC(=O)/C=C/c2ccc(O)cc2)[C@H]1O | 0.6 |  |  |  |  | 7 | 12 | 20.6 | 34 | 2.9 | 
16 | C[C@@H]1O[C@@H](Oc2c(-c3ccc(O)cc3)oc3cc(O)cc(O)c3c2=O)[C@H](OC(=O)/C=C/c2ccc(O)cc2)[C@H](OC(=O)/C=C\c2ccc(O)cc2)[C@H]1O | 2 |  |  |  |  | 4 | 2 | 11.9 | 6 | 3 | 
17 | C=C(C)[C@@H]1CC[C@]2(CO)CC[C@]3(C)[C@H](CC[C@@H]4[C@@]5(C)CC[C@H](OC(=O)/C=C/c6ccc(O)cc6)[C@@](C)(CO)[C@@H]5CC[C@]43C)[C@@H]12 (stereo in doubt) [listing 1 of 2 here] |  |  |  |  |  |  | 0.7 |  |  |  | 
18 | CC(=O)O[C@@H]1[C@@H](OC(=O)/C=C\c2ccc(O)cc2)[C@H](Oc2c(-c3ccc(O)cc3)oc3cc(O)cc(O)c3c2=O)O[C@H](COC(=O)/C=C/c2ccc(O)cc2)[C@H]1OC(C)=O | 0.9 |  |  |  |  | 5 | 5.6 | < 3 | < 3.3 | < 0.6 | 
19 | C=C(C)[C@@H]1CC[C@]2(CO)CC[C@]3(C)[C@H](CC[C@@H]4[C@@]5(C)CC[C@H](OC(=O)/C=C/c6ccc(O)cc6)[C@@](C)(CO)[C@@H]5CC[C@]43C)[C@@H]12 (stereo in doubt) [listing 2 of 2 here] |  |  |  |  |  | 1.6 |  | 22 | 9.6 | 14 | 2.3
20 | COc1cc(O)c(-c2c(C)cc(O)c3c2C(=O)c2cccc(O)c2C3=O)c(O)c1C(C)=O [KNIPHOLONE] |  |  |  |  |  | 5 | 1 | 32.3 | 6.6 | 6.5 | 
21 | C=C(C)[C@@H]1CC[C@]2(CO)CC[C@]3(C)[C@H](CC[C@@H]4[C@@]5(C)CC[C@H](OC(=O)/C=C/c6ccc(O)cc6)[C@@](C)(CO)[C@@H]5CC[C@]43C)[C@@H]12 (stereo in doubt; 6) [listing 2 of 2 here] |  |  |  |  |  |  | 0.7 |  |  |  | 
22 | C[C@@H]1O[C@@H](Oc2c(-c3ccc(O)cc3)oc3cc(O)cc(O)c3c2=O)[C@H](OC(=O)/C=C\c2ccc(O)cc2)[C@H](OC(=O)/C=C/c2ccc(O)cc2)[C@H]1O | 0.5 |  |  |  |  | 4.1 | 8.2 | 9.3 | 19 | 2.3 | 
